Assays:
iPSC-CM = assay: Ca2+ flux phenotypic assay; conditions: for beat frequency from Ca2+ flux traces: 100 μM, 90 minutes after treatment, vehicle ~30 beats per minute
iPSC-Hep = assay: High-content imaging phenotypic assay in iPSC-derived hepatocytes, 48 h exposure; type: cell-based, human; conditions: 0.1-100 μM, benchmark 1 SD

SMILES	negative chronotropy: effect that reached benchmark response (5% change) (iPSC-CM; 0.1-100 μM, 90 min)	beat frequency from Ca2+ flux traces (iPSC-CM)	QT prolongation: effect that reached benchmark response (5% change) (iPSC-CM; 0.1-100 μM, 90 min)	concentration-response phenotypic effect on cell mean area (iPSC-Hep)
O=S(=O)(O)CCC(F)(F)C(F)(F)C(F)(F)C(F)(F)C(F)(F)C(F)(F)C(F)(F)C(F)(F)F [8:2 FTS, 8:2 Fluorotelomer sulfonic acid]	decreased peak frequency	–	–	–
N.O=C(O)C(F)(F)C(F)(F)C(F)(F)C(F)(F)C(F)(F)C(F)(F)C(F)(F)F [NH4PFOA, Ammonium perfluorooctanoate]	decreased peak frequency	–	–	–
O=S(=O)(O)C(F)(F)C(F)(F)C(F)(F)C(F)(F)F [PFBS, Perfluorobutanesulfonic acid]	decreased peak frequency	24 beats per minute	–	–
O=S(=O)([O-])C(F)(F)C(F)(F)C(F)(F)C(F)(F)C(F)(F)C(F)(F)C(F)(F)C(F)(F)C(F)(F)C(F)(F)F.[Na+] [PFDS-Na, Sodium perfluorodecanesulfonate]	decreased peak frequency	–	QT prolongation	–
O=C(O)C(F)(F)C(F)(F)OC(F)(F)F [PFMPA, Perfluoro-3-methoxypropanoic acid]	decreased peak frequency	–	–	–
O=C(O)C(F)(F)C(F)(F)C(F)(F)C(F)(F)C(F)(F)C(F)(F)C(F)(F)F [PFOA, Perfluorooctanoic acid]	decreased peak frequency	–	–	increased mean cell area
O=C(O)C(F)(F)C(F)(F)C(F)(F)C(F)(F)C(F)(F)C(F)(F)C(F)(F)C(F)(F)C(F)(F)C(F)(F)C(F)(F)C(F)(F)C(F)(F)F [PFTeDA, Perfluorotetradecanoic acid]	decreased peak frequency	–	–	–
O=C(O)C(F)(F)C(F)(F)C(F)(F)C(F)(F)C(F)(F)C(F)(F)C(F)(F)C(F)(F)C(F)(F)C(F)(F)C(F)(F)C(F)(F)F [PFTiDA, Perfluorotridecanoic acid]	decreased peak frequency	12 beats per minute	–	–

Reference: paper PMC11305846 (ALTEX, 2024)
